Assay results taken from PubChem BioAssay (NCI).
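Interpolation was linear, between the two tested concentrations surrounding the appropriate level; five concentrations were tested over 48 hours in 96-well plates. GI50: concentration for 50% inhibition of growth. Definition used: TGI = concentration required for complete inhibition of growth.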

What was measured:
Test in all cases: DTP human tumour cell line panel, 48 h
MDA-MB-231 breast = test system: MDA-MB-231 breast
SW-620 colon = test system: SW-620 colon
PC-3 prostate = test system: PC-3 prostate
SNB-19 CNS = test system: SNB-19 CNS
NCI-H522 lung = test system: NCI-H522 lung
SF-539 CNS = test system: SF-539 CNS
NCI-H226 lung = test system: NCI-H226 lung
LOX IMVI melanoma = test system: LOX IMVI melanoma
SK-MEL-5 melanoma = test system: SK-MEL-5 melanoma
UACC-62 melanoma = test system: UACC-62 melanoma

| Structure (SMILES) | GI50 (MDA-MB-231 breast) | TGI (MDA-MB-231 breast) | GI50 (SW-620 colon) | TGI (SW-620 colon) | GI50 (PC-3 prostate) | TGI (PC-3 prostate) | GI50 (SNB-19 CNS) | TGI (SNB-19 CNS) | GI50 (NCI-H522 lung) | TGI (NCI-H522 lung) | GI50 (SF-539 CNS) | TGI (SF-539 CNS) | GI50 (NCI-H226 lung) | TGI (NCI-H226 lung) | GI50 (LOX IMVI melanoma) | TGI (LOX IMVI melanoma) | GI50 (SK-MEL-5 melanoma) | TGI (SK-MEL-5 melanoma) | GI50 (UACC-62 melanoma) | TGI (UACC-62 melanoma) |
| --- | --- | --- | --- | --- | --- | --- | --- | --- | --- | --- | --- | --- | --- | --- | --- | --- | --- | --- | --- | --- |
| CC[C@@]1(OC(=O)CN)C(=O)OCc2c1cc1n(c2=O)Cc2cc3c(N)cccc3nc2-1 | 1.43 µM | > 21.5 µM | 0.0247 µM | 3.78 µM | 0.16 µM | > 100 µM | < 0.01 µM | > 100 µM | < 0.01 µM | 1.31 µM | < 0.01 µM | < 0.0153 µM | 0.0216 µM | 0.498 µM | < 0.01 µM | 0.0486 µM | – | – | – | – |
| Oc1ccccc1C=Nc1nc(SCc2ccccc2)nc2[nH]ncc12 | 29.2 µM | > 100 µM | 40 µM | > 100 µM | 37.2 µM | > 100 µM | 49.5 µM | > 100 µM | 50.9 µM | > 100 µM | > 100 µM | > 100 µM | 54.3 µM | > 100 µM | 56.3 µM | > 100 µM | 11.9 µM | 26.3 µM | 28.1 µM | 73.7 µM |
| COc1ccc(-n2cc(-c3cc(OC)c(OC)c(OC)c3)nc2SCc2ccccc2)cc1OC | > 63.6 µM | > 100 µM | > 100 µM | > 100 µM | 15.3 µM | > 100 µM | > 100 µM | > 100 µM | 41.8 µM | > 100 µM | > 100 µM | > 100 µM | > 78.7 µM | > 100 µM | 59.3 µM | > 100 µM | 15.6 µM | > 100 µM | 44.9 µM | > 100 µM |
| CCOC(=O)/C(=C\c1ccc(C#N)cc1)C(C)=O | – | 33.3 µM | – | > 100 µM | – | 39.1 µM | – | > 100 µM | – | 24.9 µM | – | > 100 µM | – | 89.3 µM | – | 34.5 µM | – | 41 µM | – | 17.5 µM |
| N#CC1=C(N)Oc2c(sc3c(Br)cccc23)C1c1ccc(Br)cc1 (centres undefined) | 1.21 µM | 3.7 µM | 1.55 µM | 15.1 µM | 0.516 µM | 6.32 µM | 0.707 µM | 12.8 µM | 0.088 µM | 0.534 µM | 0.793 µM | 3.02 µM | 4.28 µM | 20.2 µM | 0.747 µM | 3.95 µM | 2.21 µM | 14.6 µM | 0.636 µM | 16.5 µM |
| CCC[CH2][Sn]([CH2]CCC)([CH2]CCC)[O]C(=O)c1ccc(Cl)cc1Cl | 0.129 µM | 0.326 µM | 0.158 µM | 0.335 µM | 0.202 µM | 0.471 µM | 0.179 µM | 0.359 µM | 0.0784 µM | 0.251 µM | 0.172 µM | 0.327 µM | – | – | 0.148 µM | 0.303 µM | 0.143 µM | 0.276 µM | 0.161 µM | 0.368 µM |
